# Data as given in publication PMC9404985, “Development of Dicationic Bisguanidine-Arylfuran Derivatives as Potent Agents against Gram-Negative Bacteria” (Antibiotics, 2022).
# pEC50: −log10 of the molar value.
# Experiments:
# [1] = test system: Acinetobacter baumannii CCUG # 57035; experiment: MIC of established antibiotics, micro-broth dilution; conditions: CCUG57035, read-out: MIC Acinetobacter baumannii CCUG 57035
# [2] = test system: Klebsiella pneumoniae CCUG # 225T; experiment: as above; conditions: read-out: MIC Klebsiella pneumoniae CCUG 225T
# [3] = test system: Escherichia coli CCUG # 17620; experiment: as above; conditions: CCUG17620, read-out: MIC Escherichia coli CCUG 17620
# [4] = test system: Enterobacter hormaechei CCUG # 58962; experiment: as above; conditions: CCUG58962, read-out: MIC Enterobacter hormaechei CCUG 58962
# [5] = test system: Pseudomonas aeruginosa CCUG # 59347; experiment: as above; conditions: CCUG59347, read-out: MIC Pseudomonas aeruginosa CCUG 59347
# [6] = test system: Klebsiella pneumoniae CCUG # 58547; experiment: as above; conditions: CCUG58547, read-out: MIC Klebsiella pneumoniae CCUG 58547
# [7] = test system: Pseudomonas aeruginosa CCUG # 17619; experiment: as above; conditions: CCUG17619, read-out: MIC Pseudomonas aeruginosa CCUG 17619
# [8] = test system: Escherichia coli CCUG # 67180; experiment: as above; conditions: CCUG67180, read-out: MIC Escherichia coli CCUG 67180
# [9] = test system: Acinetobacter baumannii CCUG # 57250; experiment: as above; conditions: CCUG57250, read-out: MIC Acinetobacter baumannii CCUG 57250
# [10] = test system: Enterobacter cloacae CCUG # 6323T; experiment: as above; conditions: read-out: MIC Enterobacter cloacae CCUG 6323T
# [11] = test system: P. carotovorum (NBRC/ATCC #3380); experiment: Antibacterial resazurin assay, laboratory strain; conditions: for pEC50 / EC90: Pectobacterium carotovorum, ATCC3380, 18 h; for pEC50: read-out: Pcar EC50, laboratory strain, 18 h, 37 °C, AlamarBlue; for EC90: read-out: Pcar EC90; for Selectivity index P. carotovorum: mean of MCF-7 and HepG2 EC50 over bacterial EC50, laboratory strain
# [12] = test system: P. putida (NBRC/ATCC #100650); experiment: Antibacterial resazurin assay, laboratory strain; conditions: for pEC50 / EC90: Pseudomonas putida, ATCC100650, 18 h; for pEC50: read-out: Ppu EC50, laboratory strain, 18 h, 37 °C, AlamarBlue; for EC90: read-out: Ppu EC90; for Selectivity index P. putida: mean of MCF-7 and HepG2 EC50 over bacterial EC50, laboratory strain
# [13] = Cytotoxicity assay (PrestoBlue) HepG2; format: cell-based; conditions: human, HepG2 cells (hepatoma cell line), 24 h incubation
# Experimental: (§1) The cytotoxicity levels of all compounds were evaluated against human Michigan Cancer Foundation-7 (MCF-7) and Hepatoma G2 cell line (HepG2) cell lines. MCF-7 is an extensively characterized breast cancer cell line isolated in 1970 [41], while HepG2 cells were derived from a hepatoma in 1975 [42]. Both cell lines grow robustly during in vitro culture and have been widely used for cytotoxicity testing. Cells of hepatic origin, such as HepG2, are of particular relevance for toxicity studies as many drugs accumulate in the liver during metabolic conversion. Cells were grown in Dulbecco’s Modified Eagle Medium supplemented with 10% fetal calf serum and kept in exponential growth, as previously reported. Before the assay, cells were reseeded into 96-well microtiter plates at a density allowing continued exponential growth and let to settle for 24 h. The compounds were added from a stock solution in DMSO, for a final concentration of 0.3% v/v of the solvent in the culture medium. After 24 h of incubation in presence of the compound, cell viability was assayed using PrestoBlue Cell Viability Reagent (resazurin-based solution, ThermoFisher, Waltham, MA, USA) according to the manufacturer’s instructions. […] Each assay contained a DMSO control at the equivalent starting concentration, positive control (uninhibited cell growth) and negative control (cell medium only). Survival was expressed as percentage of the solvent-only control. […] The Selectivity Index (SI) for each compound and bacterial strain was calculated as the ratio between the mean of the EC50 values for the two human cell lines and the EC50 for the bacterial strain in question ((EC50 MCF-7 + EC50 HepG2)/2)/EC50 bacterial strain).
# [14] = Cytotoxicity assay (PrestoBlue) MCF-7; format: cell-based; conditions: human, MCF-7 cells (breast cancer cell line), 24 h incubation
# Experimental: as §1
# [15] = test system: P. caledonica (NBRC/ATCC #102488); experiment: Antibacterial resazurin assay, laboratory strain; conditions: for pEC50 / EC90: Paraburkholderia caledonica, ATCC102488, 18 h; for pEC50: read-out: Pcal EC50; for EC90: read-out: Pcal EC90; for Selectivity index P. caledonica: mean of MCF-7 and HepG2 EC50 over bacterial EC50, laboratory strain
# [16] = test system: B. subtilis (NBRC/ATCC #111470); experiment: Antibacterial resazurin assay, laboratory strain; conditions: for pEC50 / EC90: Bacillus subtilis, ATCC111470, 18 h; for pEC50: read-out: Bsu EC50; for EC90: read-out: Bsu EC90; for Selectivity index B. subtilis: mean of MCF-7 and HepG2 EC50 over bacterial EC50, laboratory strain
# [17] = test system: E. coli MG1655 (CGSC #6300); experiment: Antibacterial resazurin assay, laboratory strain; conditions: for pEC50 / EC90: Escherichia coli, MG1655, 18 h; for pEC50: read-out: Eco EC50; for EC90: read-out: Eco EC90; for Selectivity index E. coli: mean of MCF-7 and HepG2 EC50 over bacterial EC50, laboratory strain
MIC [1] [µM],MIC [2] [µM],MIC [3] [µM],MIC [4] [µM],MIC [5] [µM],SMILES,pEC50 [11],EC90 [11] [µM],pEC50 [12],EC90 [12] [µM],EC50 at 24 h [13] [µM],EC50 at 24 h [14] [µM],pEC50 [15],EC90 [15] [µM],Selectivity index P. caledonica [15],pEC50 [16],EC90 [16] [µM],Selectivity index B. subtilis [16],pEC50 [17],EC90 [17] [µM],Selectivity index E. coli [17],also measured
200,0.18,0.025,0.1,100,O=C(O)c1cn(C2CC2)c2cc(N3CCNCC3)c(F)cc2c1=O [Ciprofloxacin],–,–,–,–,–,–,–,–,–,–,–,–,–,–,–,MIC [6]: 190 µM; MIC [7]: 1.5 to 3 µM; MIC [8]: 190 µM; MIC [9]: 200 µM
335,0.16 to 0.32,0.16,0.3,335,C[C@@H](O)[C@H]1C(=O)N2C(C(=O)O)=C(S[C@@H]3CN[C@H](C(=O)N(C)C)C3)[C@H](C)[C@H]12 [Meropenem],–,–,–,–,–,–,–,–,–,–,–,–,–,–,–,MIC [6]: > 80 µM; MIC [7]: 2.6 to 5.2 µM; MIC [10]: 0.6 to 1.2 µM; MIC [8]: 10 to 20 µM; MIC [9]: 40 µM
175,350,11 to 44,350,350,CC1(C)S[C@@H]2[C@H](NC(=O)[C@H](N)c3ccc(O)cc3)C(=O)N2[C@H]1C(=O)O [Amoxicillin],–,–,–,–,–,–,–,–,–,–,–,–,–,–,–,MIC [6]: 350 µM; MIC [7]: 350 µM; MIC [10]: 350 µM; MIC [8]: 350 µM; MIC [9]: 175 µM
–,–,–,–,–,"N=C(N)Nc1ccc(-c2ccc(C(=O)N3CCc4ccccc43)o2)c(Cl)c1 [Compound 20, (5-(2-chloro-4-guanidinophenyl)furan-2-yl)(indolin-1-yl)methanone]",3.80,187,< 3.52,> 300,28.5,37.8,3.89,> 300,0.3,4.61,38.4,1.4,4.21,106,0.5,Selectivity index P. carotovorum [11]: 0.2
–,–,–,–,–,"N=C(N)Nc1ccc2c(c1)CCN2C(=O)c1ccc(-c2ccccc2Cl)o1 [Compound 19, (5-(2-chlorophenyl)furan-2-yl)(5-guanidinoindolin-1-yl)methanone]",4.06,130,4.12,84.9,24.8,26.4,4.02,287,0.3,4.84,25.9,1.8,6.30,2.5,51.2,Selectivity index P. carotovorum [11]: 0.3; Selectivity index P. putida [12]: 0.3
–,–,–,–,–,"Cc1nc(NC(=N)N)ccc1-c1ccc(-c2ccc(NC(=N)N)nc2C)o1 [Compound 9, 2,5-Bis(6-guanidino-2-methylpyridin-3-yl)furan]",< 3.52,> 300,< 3.52,> 300,> 100,> 1000,4.07,213,6.5,3.81,246,3.6,3.26,> 900,1.0,–
–,–,–,–,–,"N=C(N)Nc1ccc2c(c1)CCN2C(=O)c1ccc(-c2ccc(NC(=N)N)cc2C(F)(F)F)o1 [Compound 18, (5-(2-trifluoromethy-4-guanidinophenyl)furan-2-yl)(5-guanidinoindolin-1-yl)methanone]",4.02,120,5.00,22.2,508,123,4.90,176,25.1,5.02,13.6,32.9,4.37,58.3,7.5,Selectivity index P. carotovorum [11]: 3.3; Selectivity index P. putida [12]: 31.3
